Reference: patent US20060073099A1, “Treatment screening methods” (priority 2004, published 2006)

System: Macaca mulatta (Rhesus monkey) exposed to a 6 Gy dose of γ-radiation (LD50/30)
Experimental: Treatment of whole body lethal radiation and characterization of mortality surrogate markers. Two groups of 10 Macaca mulatta (Rhesus monkey) were exposed to a 6 Gy dose of γ-radiation from a ^60Co source. This dose is an LD50/30 dose for this species. […] The animals in each group were treated once per day for 5 consecutive days beginning on the day the animals were exposed to radiation. The animals consisted of 12 males and 8 females with a body weight range of about 2.5-5.5 kg at the onset of treatment. The age range was 1.75-5.0 years at the onset of treatment.
Twelve male and eight female rhesus monkeys were assigned to the study. Each group comprised of seven male and three female animals. During the acclimation period, animals were assigned to their respective dose groups by randomization based on the absolute neutrophil count. The average of 3 pretreatment absolute neutrophil counts were used for each animal.
The test article (100 mg/mL AED) and vehicle or control article in aliquots of 10 mL. Test article was an aqueous suspension in vehicle. The vehicle article consists of a solution of sodium shloride (0.9% w/v), carboxymethylcellulose (0.5% w/v), polysorbate 80 (2% v/v), benzalkonium chloride (0.02% v/v) and sodium phosphate (10 mM, pH 6.5). Immediately prior to drawing into a syringe, the test article formulation was briefly vortexed to uniformly distribute sedimented test article. Once drawn into a syringe, the test article was administered within 10 minutes. Just prior to injection, the syringe containing the test article was rotated end-over-end to uniformly disperse the compound.
Whole body radiation. The animals were exposed to ionizing as follows. Dosimetry measurements using phantoms, the dose rate and duration of irradiation and the actual time of irradiation for each individual animal was recorded. Animals were fasted overnight prior to whole-body irradiation and fed upon return to the housing facility.
The animals received a midline treatment dose of 600 cGy. The dose rate of the ^60Co gamma source was about 60 cGy per minute and the actual rate was recorded for each animal. To obtain a homogenous dose distribution, the radiation treatment was divided in two parts. First, the animal received half of the dose by anteroposterior irradiation. The second half of the dose was delivered by posteroanterior irradiation. […] The radiation dose was calibrated using an acrylic phantom placed in the same experimental set up that was used for animal irradiation.

C[C@]12CC[C@H]3[C@@H](CC=C4C[C@@H](O)CC[C@@]43C)[C@@H]1CC[C@@H]2O [3β,17β-dihydroxyandrost-5-ene]
animals survived (600 cGy 60Co whole body γ-irradiation, 15 mg/kg i.m. once per day for 5 consecutive days, first injection 2-3 hours after irradiation, 10 animals, observed to day 40-41): 9 of 10 | days of severe thrombocytopenia (less than 20,000 platelets/μL) experienced collectively by the group (600 cGy whole body irradiation, 15 mg/kg i.m. daily x5, 10 animals, p=0.009 by exact test of homogeneity vs vehicle (51 days)): 32 days | median days of febrile severe neutropenia (600 cGy whole body irradiation, 15 mg/kg i.m. daily x5, 95% CI 0,2, p=0.037 by exact log rank test vs vehicle (median 5 days)): 0 days | Mortality (600 cGy whole body irradiation, 15 mg/kg i.m. daily x5, Fisher's exact test mid p=0.073 vs two combined control groups (45% mortality)): 10% | survivors having febrile severe neutropenia (core body temperature >40.4° C. and absolute neutrophil count less than 500 cells/μL) at some time during the protocol (600 cGy whole body irradiation, 15 mg/kg i.m. daily x5, the one non-survivor did not have the condition): 2 animals
